Test results: publication PMC11234460, “In Silico Discovery of Stapled Peptide Inhibitor Targeting the Nur77‐PPARγ Interaction and Its Anti‐Breast‐Cancer Efficacy” (Advanced Science, 2024)
Where a SMILES comes first, the peptide text is derived from it. Bridges are numbered along the chain shown (N, C = ends). [ ]: non-standard residue; d: D form. S5 = C=CCCC[C@](C)(N)C(=O)O

Key:
[1] = test system: MCF-10A cells; conditions: 24 h, CCK-8
Method: MCF7, MDA‐MB‐231, and MDA‐BoM‐1833 cells (5000 cells/well) were seeded in 96‐well plates and cultured overnight at 37°C and 5% CO2. The cells were then treated with fresh basic medium containing various concentrations (1/2/5/10/20 × 10^−6 M) of compounds. After 24 h of incubation, the cells were incubated with a basic medium containing 10% Cell Counting Kit‐8 (Dojindo, CK‐04) for 2 h. Cell viability was evaluated by measuring the absorbance at 450 nm. The formula used was [(As‐Ab)/(Ac‐Ab)] × 100%, where as represents the absorbance of the drug‐treated group, Ac represents the absorbance of the control group treated with medium, and Ab represents the absorbance of the blank control containing only medium.

[2] = test system: MCF7 cells; assay: Transwell cell migration analysis; assay type: cell-based, human; conditions: MCF7, 12 h
Method: 600 µL DMEM complete medium was added to the lower chamber of the Transwell. Next, 2×10^4 cells in 100 µL DMEM medium, containing 1, 2, 5, 10, or 2 × 10^−5 M peptides, were added to the upper chamber of the Transwell. The cells were incubated for 12 h at 37 °C and 5% CO2. After the incubation period, the medium was discarded, and the chamber was washed with PBS. The cells were then fixed with 4% paraformaldehyde for 20 min. The upper chamber was subsequently soaked in crystal violet for 20 min, washed with PBS, and observed under a microscope for analysis.

## C[C@@H](O)[C@@H]1NC(=O)[C@H](CCCNC(=N)N)NC(=O)[C@H](CCCNC(=N)N)NC(=O)[C@@](C)(NC(=O)[C@H](Cc2ccccc2)NC(=O)CNC(=O)[C@H](CCCCN)NC(=O)[C@H](CS)NC(=O)CNC(=O)[C@H](CCC(=O)O)NC(=O)[C@@H](N)CS)CCCC=CCCC[C@@](C)(C(=O)N[C@@H](CCCNC(=N)N)C(=O)N[C@@H](Cc2ccc(O)cc2)C(=O)N[C@@H](Cc2ccc(O)cc2)C(=O)NCC(=O)N[C@@H](CCCNC(=N)N)C(=O)N[C@@H](CCCCN)C(=O)N[C@@H](CCCCN)C(=O)N[C@@H](CCCNC(=N)N)C(=O)N[C@@H](CCCNC(=N)N)C(=O)N[C@@H](CCC(N)=O)C(=O)N[C@@H](CCCNC(=N)N)C(=O)N[C@@H](CCCNC(=N)N)C(=O)N[C@@H](CCCNC(=N)N)C(N)=O)NC1=O [ST-CY14] (H-CEGCKGF[S5]RRT[S5]RYYGRKKRRQRRR-NH2; staple 8-12)
[1]
  Sensitivity of normal breast cells: less sensitive to ST‐CY14
[2]
  Transwell transmigration: inhibited the transmigration
